Test results: patent US9370503B1, “Compounds for treating ocular diseases” (priority 2015, dated 2016)

What was measured:
ARPE-19 cells [1] = assay: MTT assay, proliferation/cytotoxicity in ARPE-19 cells; assay type: cell-based, human; settings: 72 hours
Protocol: (§1) ARPE-19 cells were grown in DMEM/F12 medium supplemented with 10% FBS, 100 units/ml penicillin G, and 100 μg/ml streptomycin sulfate. HUVECs were grown in vascular cell basal medium supplemented with endothelial cell growth kit. Cells were incubated in a humidified incubator at 37° C. under 5% CO2 and 95% air.
(§2) MTT assay was used to measure the viability of ARPE-19 cells and HUVECs. 2×10^5 ARPE-19 cells or 5×10^4 HUVECs were seeded in 96-well plates (100 μl/well) and allowed to grow overnight. Negative control was prepared by adding 100 μl medium without cells. The cells were then treated with fresh medium with a compound of Formula (II) (“(II)”) (0.03, 0.1, 0.3, 1, 3 and 10 μg/ml) and/or oxidants (NaIO3, H2O2, t-BHP and NaN3) for 12, 24, or 72 hours (200 μl/well). The vehicle control group was treated with vehicle. 20 μl MTT (5 mg/ml) was added to wells, and incubated for another 4 h. After incubation, the medium was discarded and 100 μl DMSO was added to solubilize formazan produced from MTT by the viable cells. Absorbance was measured at 570 nm using a microplate reader (Bio-Rad Laboratories, Inc., CA). Cells viability was calculated according to the following formula: Viability of cells (%)=(absorbance in tested sample−absorbance in negative control)/(absorbance in vehicle control−absorbance in negative control)×100%.

HUVECs = assay: NaIO3-induced injury in HUVECs (MTT); assay type: cell-based, human; settings: 3 and 10 μg/ml compound, 72 hours
Protocol: as §1, §2

ARPE-19 cells [2] = assay: t-BHP-induced injury in ARPE-19 cells (MTT); assay type: cell-based, human; settings: 12 hours
Protocol: as §1, §2

[3] = system: laser induced AMD rat model; assay: Laser induced AMD rat model, CNV area by fluorescein angiography; assay type: in vivo; settings: (II) instillation, laser rupture of Bruch's membrane, vs control about 2.5 mm^2
Protocol: The rats were randomly divided into 2 groups. Control group was instilled with vehicle (30% HP-β-CD solution). […] Both eyes of all rats were instilled with 1 drop of ophthalmic solutions 3 times a day for 1 week before and 4 weeks after laser induced injury. The rats were anesthetized for all procedures with intramuscular injection of ketamine (35 mg/kg) and xylazine (5 mg/kg). The pupils were dilated with one drop each of 10 mg/ml atropine, and 25 mg/ml phenylephrine. The fundus was visualized by the VOLK super Pupil XL Biomicroscopy Lens (Keeler Instruments Inc., Broomall, Pa., USA). A double frequency Nd:YAG laser (Laserex LP3532; Lumenis Inc., Salt Lake City, Utah, USA) was used at 532 nm wavelength. Laser parameters were used by 100 μm spot size, 0.15-second exposure and 150-200 mw powers. Five laser spots were made to the ocular fundus at approximately equal distances around the optic nerves. […] Only laser spots with bubble formation were included in the study. Lesions with subretinal hemorrhage were excluded. Fluorescein angiography (FA) was performed after 2 and 4 weeks laser treatment with a digital fundus camera (TRC-50EX; TOPCON, Tokyo, Japan). 100 mg/ml fluorescein sodium salt was injected (0.5 ml/kg) through hypoglossal vein. Both early (under 2 minutes) and late (over 7 minutes) fluorescein phases were captured. […]

[4] = system: NaIO3 induced dry AMD rat model; assay: NaIO3 induced dry AMD rat model, c-wave of ERG; assay type: in vivo; settings: 1% eye drops 3 times a day, 35 mg/kg NaIO3, BN rats
Protocol: A total of thirty 8-week-old male Brown-Norway (BN) rats were randomly divided into 3 groups, 10 rats in normal group, 10 rats in NaIO3 group and 10 rats in (II)+NaIO3 group. Control group was instilled with solvent (2-hydroxypropyl-β-cyclodextrin, Sigma-Aldrich) alone without NaIO3 injection. NaIO3 group was instilled with solvent plus 35 mg/kg NaIO3 injection through hypoglossal vein; whereas (II)+NaIO3 group was instilled with 1% (II) eye drops plus 35 mg/kg NaIO3 injection. Both eyes of all rats were instilled with 1 drop for 3 times a day for 1 week before and 4 weeks after NaIO3 injection. At the end of 2 and 4 weeks, RPE function was measured with c-wave of ERG.
BN rats were dark adapted for 2 hours, and then anesthetized with ketamine 35 mg/kg plus xylazine 5 mg/kg i.m, Half of the initial dose was given each 1 hour thereafter. Pupils of all rats were dilated with one drop each of 1% atropine, and 2.5% phenylephrine. Before recording, one drop of 0.5% tetracaine was given for surface anesthesia. All rats were kept warm during ERG measurement. DC-ERG recording methods developed by Peachey were followed. […] Data were analyzed by iWORX LabScribe Data Recording Software (iWorxOCB Sciences, Dover, N.H.). […]

c-wave of ERG in NaIO3-treated rats [4]: markedly reverse
reversal of NaIO3 induced dry AMD model (c-wave of ERG) [4]: 4 times
SMILES: CC(C)=CCC/C(C)=C/Cc1c([C@@H]2CC(=O)c3c(cc(O)c(CC=C(C)C)c3O)O2)ccc(O)c1O [Formula (II)]
effect on proliferation of ARPE-19 cells (ARPE-19 cells [1]; 0.03 μg/ml to 3 μg/ml): did not affect
inhibition at 10 µg/mL (ARPE-19 cells [1]; Homo sapiens, ARPE-19, 10 μg/ml): 34%
effect on NaIO3-induced injury in HUVECs (HUVECs): enhanced
effect on t-BHP-induced injury in ARPE-19 cells (ARPE-19 cells [2]): significantly reversed
area of CNV formation [3]: significantly suppressed
